Source: the supplement of paper PMC5908809

Key:
[1] = system: normal NK cells expanded with K562-aAPC; experiment: percent inhibition of viability; higher = more inhibition; settings: 72 h, IL-2 2.5 ng/mL
Experimental: (§1)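 Drug sensitivity and resistance testing on K562-aAPC-expanded normal NK cells: 5 concentrations (10-fold steps over a 10,000-fold range), 72 h at 37 °C, viability by CellTiter-Glo normalised to DMSO and benzethonium chloride controls; DSS from the fitted curve.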

DERL-7 (IL-2 2.5 ng/mL) [2] = experiment: as above; settings: 72 h
IMC-1 (IL-2 20 ng/mL) [3] = experiment: as above; settings: 72 h
KAI3 (IL-2 2.5 ng/mL) [4] = experiment: as above; settings: 72 h
KHYG-1 (IL-2 2.5 ng/mL) [5] = experiment: as above; settings: 72 h
NK-92 (IL-2 2.5 ng/mL) [6] = experiment: as above; settings: 72 h
NK-YS (IL-2 2.5 ng/mL) [7] = experiment: as above; settings: 72 h
NKL (IL-2 2.5 ng/mL) [8] = experiment: as above; settings: 72 h
SNK-6 (IL-2 2.5 ng/mL) [9] = experiment: as above; settings: 72 h
YT (IL-2 2.5 ng/mL) [10] = experiment: as above; settings: 72 h
[11] = system: normal primary NK cells, pool 1 (3 donors) (IL-2 2.5 ng/mL); experiment: as above; settings: 72 h
[12] = system: normal primary NK cells, pool 1 (3 donors), resting (IL-2 0 ng/mL); experiment: as above; settings: 72 h
[13] = system: normal primary NK cells, pool 2 (3 donors) (IL-2 2.5 ng/mL); experiment: as above; settings: 72 h
[14] = system: normal primary NK cells, pool 3 (3 donors) (IL-2 2.5 ng/mL); experiment: as above; settings: 72 h
[15] = system: normal NK cells expanded with K562-aAPC; experiment: drug sensitivity score (DSS) (DSS units); higher = more sensitive; extreme values may be limits of the assay; settings: 72 h; IL-2 2.5 ng/mL
Experimental: as §1

DERL-7 (IL-2 2.5 ng/mL) [16] = experiment: as above; settings: 72 h
IMC-1 (IL-2 20 ng/mL) [17] = experiment: as above; settings: 72 h
KAI3 (IL-2 2.5 ng/mL) [18] = experiment: as above; settings: 72 h
KHYG-1 (IL-2 2.5 ng/mL) [19] = experiment: as above; settings: 72 h
NK-92 (IL-2 2.5 ng/mL) [20] = experiment: as above; settings: 72 h
NK-YS (IL-2 2.5 ng/mL) [21] = experiment: as above; settings: 72 h
NKL (IL-2 2.5 ng/mL) [22] = experiment: as above; settings: 72 h
SNK-6 (IL-2 2.5 ng/mL) [23] = experiment: as above; settings: 72 h
YT (IL-2 2.5 ng/mL) [24] = experiment: as above; settings: 72 h
[25] = system: normal primary NK cells, pool 1 (3 donors) (IL-2 2.5 ng/mL); experiment: as above; settings: 72 h
[26] = system: normal primary NK cells, pool 1 (3 donors), resting (IL-2 0 ng/mL); experiment: as above; settings: 72 h
[27] = system: normal primary NK cells, pool 2 (3 donors) (IL-2 2.5 ng/mL); experiment: as above; settings: 72 h
[28] = system: normal primary NK cells, pool 3 (3 donors) (IL-2 2.5 ng/mL); experiment: as above; settings: 72 h

COc1cc2c(NC3CCN(C(C)C)CC3)nc(C3CCCCC3)nc2cc1OCCCN1CCCC1 [UNC0638] (max concentration tested 10000 nM)
percent inhibition of viability [%]
Settings | 1 nM | 10 nM | 100 nM | 1000 nM | 10000 nM
DERL-7 (IL-2 2.5 ng/mL) [2] | 2.53 | 3.85 | -3.65 | 12.8 | 101
IMC-1 (IL-2 20 ng/mL) [3] | -2.5 | -1.52 | 2.54 | 4.7 | 100
KAI3 (IL-2 2.5 ng/mL) [4] | -1.49 | 2.96 | 15.3 | 64.9 | 107
KHYG-1 (IL-2 2.5 ng/mL) [5] | 3.45 | -2.32 | 4.32 | 6.75 | 102
NK-92 (IL-2 2.5 ng/mL) [6] | 5.67 | 5.27 | 21.5 | 21.4 | 104
NK-YS (IL-2 2.5 ng/mL) [7] | -0.95 | -0.93 | 1.21 | 6.18 | 103
NKL (IL-2 2.5 ng/mL) [8] | -8.37 | -2.53 | -3.47 | 10 | 103
SNK-6 (IL-2 2.5 ng/mL) [9] | -6.73 | -2.24 | 11.7 | 23.5 | 101
YT (IL-2 2.5 ng/mL) [10] | -0.28 | -1.09 | 4.71 | 0.39 | 102
[1] | -0.44 | 0.89 | 0.9 | 3.67 | 100
[11] | 4.83 | -1.29 | 1.24 | -5.62 | 100
[12] | 7.27 | -7.21 | -5.23 | 10.6 | 100
[13] | -8.36 | -2.48 | -3.63 | 1.06 | 100
[14] | -4.55 | -0.2 | 2.47 | -3.99 | 100

Settings | drug sensitivity score
DERL-7 (IL-2 2.5 ng/mL) [16] | 7.69
IMC-1 (IL-2 20 ng/mL) [17] | 6.26
KAI3 (IL-2 2.5 ng/mL) [18] | 14.4
KHYG-1 (IL-2 2.5 ng/mL) [19] | 6.72
NK-92 (IL-2 2.5 ng/mL) [20] | 8.98
NK-YS (IL-2 2.5 ng/mL) [21] | 6.67
NKL (IL-2 2.5 ng/mL) [22] | 7.29
SNK-6 (IL-2 2.5 ng/mL) [23] | 9.2
YT (IL-2 2.5 ng/mL) [24] | 5.79
[15] | 6.1
[25] | 5.15
[26] | 7.28
[27] | 5.75
[28] | 5.3
